Laboratory results published in the NIST ThermoML archive (doi:10.1021/je0496600).
Numbers after ± are expanded uncertainties.

Experiment: mn = molality of the nth substance listed, in mol/kg
Details: 101.3 kPa, Liquid; for speed of sound: Sing-around technique in a fixed-path interferometer

**Q.** Which results are given for `O=C([O-])CCC(=O)[O-].[Na+].[Na+]` [disodium succinate] + O?
**A.** speed of sound (298.15 K, m1 = 0.0188): 1500.2 ± 0.98 m/s; speed of sound (298.15 K, m1 = 0.0239): 1501.1 ± 0.98 m/s; speed of sound (298.15 K, m1 = 0.0336): 1502.7 ± 0.98 m/s; speed of sound (298.15 K, m1 = 0.0373): 1503.4 ± 0.98 m/s; speed of sound (298.15 K, m1 = 0.0452): 1504.9 ± 0.98 m/s; speed of sound (298.15 K, m1 = 0.0489): 1505.4 ± 0.99 m/s; speed of sound (298.15 K, m1 = 0.0546): 1506.3 ± 0.99 m/s; speed of sound (298.15 K, m1 = 0.0593): 1507.1 ± 0.99 m/s; speed of sound (298.15 K, m1 = 0.068): 1509 ± 0.99 m/s; speed of sound (298.15 K, m1 = 0.0763): 1510.5 ± 0.99 m/s; speed of sound (298.15 K, m1 = 0.0864): 1511.7 ± 0.99 m/s; speed of sound (298.15 K, m1 = 0.0935): 1512.8 ± 0.99 m/s; speed of sound (298.15 K, m1 = 0.1221): 1517.5 ± 0.99 m/s; speed of sound (298.15 K, m1 = 0.2589): 1539.8 ± 1 m/s; speed of sound (298.15 K, m1 = 0.3292): 1551 ± 1 m/s; speed of sound (298.15 K, m1 = 0.4019): 1562.4 ± 1 m/s; speed of sound (298.15 K, m1 = 0.4364): 1567.8 ± 1 m/s; speed of sound (298.15 K, m1 = 0.5252): 1582 ± 1 m/s; speed of sound (298.15 K, m1 = 0.6535): 1601.2 ± 1 m/s; speed of sound (298.15 K, m1 = 0.7422): 1615.1 ± 1 m/s; speed of sound (298.15 K, m1 = 0.9099): 1639.8 ± 1.1 m/s; speed of sound (298.15 K, m1 = 1.168): 1675.7 ± 1.1 m/s; speed of sound (298.15 K, m1 = 1.43): 1711.2 ± 1.1 m/s; speed of sound (298.15 K, m1 = 1.748): 1752.4 ± 1.1 m/s; mass density (298.15 K, m1 = 0.0188): 999.052 ± 0.34 kg/m3; mass density (298.15 K, m1 = 0.0239): 999.583 ± 0.34 kg/m3; mass density (298.15 K, m1 = 0.0336): 1000.61 ± 0.34 kg/m3; mass density (298.15 K, m1 = 0.0373): 1001 ± 0.34 kg/m3; mass density (298.15 K, m1 = 0.0452): 1001.82 ± 0.35 kg/m3; mass density (298.15 K, m1 = 0.0489): 1002.2 ± 0.35 kg/m3; mass density (298.15 K, m1 = 0.0546): 1002.79 ± 0.35 kg/m3; mass density (298.15 K, m1 = 0.0593): 1003.28 ± 0.35 kg/m3; mass density (298.15 K, m1 = 0.068): 1004.18 ± 0.36 kg/m3; mass density (298.15 K, m1 = 0.0763): 1005.05 ± 0.36 kg/m3; mass density (298.15 K, m1 = 0.0864): 1006.09 ± 0.36 kg/m3; mass density (298.15 K, m1 = 0.0935): 1006.82 ± 0.37 kg/m3; mass density (298.15 K, m1 = 0.1221): 1009.74 ± 0.38 kg/m3; mass density (298.15 K, m1 = 0.2589): 1023.44 ± 0.43 kg/m3; mass density (298.15 K, m1 = 0.3292): 1030.32 ± 0.46 kg/m3; mass density (298.15 K, m1 = 0.4019): 1037.3 ± 0.49 kg/m3; mass density (298.15 K, m1 = 0.4364): 1040.57 ± 0.5 kg/m3; mass density (298.15 K, m1 = 0.5252): 1048.89 ± 0.53 kg/m3; mass density (298.15 K, m1 = 0.6535): 1060.59 ± 0.58 kg/m3; mass density (298.15 K, m1 = 0.7422): 1068.47 ± 0.61 kg/m3; mass density (298.15 K, m1 = 0.9099): 1083.03 ± 0.67 kg/m3; mass density (298.15 K, m1 = 1.168): 1104.44 ± 0.76 kg/m3; mass density (298.15 K, m1 = 1.43): 1125.04 ± 0.84 kg/m3; mass density (298.15 K, m1 = 1.748): 1148.68 ± 0.94 kg/m3; speed of sound (308.15 K, m1 = 0.0188): 1523.2 ± 0.99 m/s; speed of sound (308.15 K, m1 = 0.0239): 1524.1 ± 0.99 m/s; speed of sound (308.15 K, m1 = 0.0336): 1525.6 ± 0.99 m/s; speed of sound (308.15 K, m1 = 0.0373): 1526.2 ± 0.99 m/s; speed of sound (308.15 K, m1 = 0.0452): 1527.5 ± 0.99 m/s; speed of sound (308.15 K, m1 = 0.0489): 1528 ± 0.99 m/s; speed of sound (308.15 K, m1 = 0.0546): 1528.9 ± 0.99 m/s; speed of sound (308.15 K, m1 = 0.0593): 1529.7 ± 0.99 m/s; speed of sound (308.15 K, m1 = 0.068): 1531.7 ± 0.99 m/s; speed of sound (308.15 K, m1 = 0.0763): 1532.4 ± 0.99 m/s; speed of sound (308.15 K, m1 = 0.0864): 1533.9 ± 0.99 m/s; speed of sound (308.15 K, m1 = 0.0935): 1535.1 ± 0.99 m/s; speed of sound (308.15 K, m1 = 0.1221): 1539.5 ± 0.99 m/s; speed of sound (308.15 K, m1 = 0.2589): 1560.3 ± 1 m/s; speed of sound (308.15 K, m1 = 0.3292): 1570.8 ± 1 m/s; speed of sound (308.15 K, m1 = 0.4019): 1581.6 ± 1 m/s; speed of sound (308.15 K, m1 = 0.4364): 1586.6 ± 1 m/s; speed of sound (308.15 K, m1 = 0.5252): 1599.5 ± 1 m/s; speed of sound (308.15 K, m1 = 0.6535): 1617.8 ± 1 m/s; speed of sound (308.15 K, m1 = 0.7422): 1630.5 ± 1 m/s; speed of sound (308.15 K, m1 = 0.9099): 1653.3 ± 1.1 m/s; speed of sound (308.15 K, m1 = 1.168): 1687.5 ± 1.1 m/s; speed of sound (308.15 K, m1 = 1.43): 1720.9 ± 1.1 m/s; speed of sound (308.15 K, m1 = 1.748): 1759 ± 1.1 m/s; mass density (308.15 K, m1 = 0.0188): 996.011 ± 0.37 kg/m3; mass density (308.15 K, m1 = 0.0239): 996.544 ± 0.36 kg/m3; mass density (308.15 K, m1 = 0.0336): 997.55 ± 0.35 kg/m3; mass density (308.15 K, m1 = 0.0373): 997.934 ± 0.35 kg/m3; mass density (308.15 K, m1 = 0.0452): 998.747 ± 0.34 kg/m3; mass density (308.15 K, m1 = 0.0489): 999.13 ± 0.35 kg/m3; mass density (308.15 K, m1 = 0.0546): 999.711 ± 0.34 kg/m3; mass density (308.15 K, m1 = 0.0593): 1000.19 ± 0.34 kg/m3; mass density (308.15 K, m1 = 0.068): 1001.08 ± 0.34 kg/m3; mass density (308.15 K, m1 = 0.0763): 1001.94 ± 0.35 kg/m3; mass density (308.15 K, m1 = 0.0864): 1002.96 ± 0.35 kg/m3; mass density (308.15 K, m1 = 0.0935): 1003.69 ± 0.35 kg/m3; mass density (308.15 K, m1 = 0.1221): 1006.56 ± 0.36 kg/m3; mass density (308.15 K, m1 = 0.2589): 1020.07 ± 0.42 kg/m3; mass density (308.15 K, m1 = 0.3292): 1026.85 ± 0.45 kg/m3; mass density (308.15 K, m1 = 0.4019): 1033.75 ± 0.47 kg/m3; mass density (308.15 K, m1 = 0.4364): 1036.98 ± 0.49 kg/m3; mass density (308.15 K, m1 = 0.5252): 1045.2 ± 0.52 kg/m3; mass density (308.15 K, m1 = 0.6535): 1056.74 ± 0.56 kg/m3; mass density (308.15 K, m1 = 0.7422): 1064.55 ± 0.6 kg/m3; mass density (308.15 K, m1 = 0.9099): 1078.94 ± 0.66 kg/m3; mass density (308.15 K, m1 = 1.168): 1100.13 ± 0.74 kg/m3; mass density (308.15 K, m1 = 1.43): 1120.37 ± 0.82 kg/m3; mass density (308.15 K, m1 = 1.748): 1143.92 ± 0.92 kg/m3; speed of sound (318.15 K, m1 = 0.0188): 1539.9 ± 0.99 m/s; speed of sound (318.15 K, m1 = 0.0239): 1540.6 ± 0.99 m/s; speed of sound (318.15 K, m1 = 0.0336): 1542.1 ± 0.99 m/s; speed of sound (318.15 K, m1 = 0.0373): 1542.7 ± 0.99 m/s; speed of sound (318.15 K, m1 = 0.0452): 1544 ± 0.99 m/s; speed of sound (318.15 K, m1 = 0.0489): 1544.6 ± 0.99 m/s; speed of sound (318.15 K, m1 = 0.0546): 1545.3 ± 0.99 m/s; speed of sound (318.15 K, m1 = 0.0593): 1546.6 ± 0.99 m/s; speed of sound (318.15 K, m1 = 0.068): 1547.5 ± 0.99 m/s; speed of sound (318.15 K, m1 = 0.0763): 1548.5 ± 0.99 m/s; speed of sound (318.15 K, m1 = 0.0864): 1549.9 ± 0.99 m/s; speed of sound (318.15 K, m1 = 0.0935): 1551.2 ± 1 m/s; speed of sound (318.15 K, m1 = 0.1221): 1555.2 ± 1 m/s; speed of sound (318.15 K, m1 = 0.2589): 1575.1 ± 1 m/s; speed of sound (318.15 K, m1 = 0.3292): 1585.2 ± 1 m/s; speed of sound (318.15 K, m1 = 0.4019): 1595.8 ± 1 m/s; speed of sound (318.15 K, m1 = 0.4364): 1600.7 ± 1 m/s; speed of sound (318.15 K, m1 = 0.5252): 1612 ± 1 m/s; speed of sound (318.15 K, m1 = 0.6535): 1629.2 ± 1 m/s; speed of sound (318.15 K, m1 = 0.7422): 1641 ± 1.1 m/s; speed of sound (318.15 K, m1 = 0.9099): 1662.7 ± 1.1 m/s; speed of sound (318.15 K, m1 = 1.168): 1694.9 ± 1.1 m/s; speed of sound (318.15 K, m1 = 1.43): 1726.2 ± 1.1 m/s; speed of sound (318.15 K, m1 = 1.748): 1762.5 ± 1.1 m/s; mass density (318.15 K, m1 = 0.0188): 992.179 ± 0.37 kg/m3; mass density (318.15 K, m1 = 0.0239): 992.703 ± 0.37 kg/m3; mass density (318.15 K, m1 = 0.0336): 993.703 ± 0.36 kg/m3; mass density (318.15 K, m1 = 0.0373): 994.083 ± 0.36 kg/m3; mass density (318.15 K, m1 = 0.0452): 994.887 ± 0.36 kg/m3; mass density (318.15 K, m1 = 0.0489): 995.266 ± 0.36 kg/m3; mass density (318.15 K, m1 = 0.0546): 995.841 ± 0.36 kg/m3; mass density (318.15 K, m1 = 0.0593): 996.315 ± 0.35 kg/m3; mass density (318.15 K, m1 = 0.068): 997.197 ± 0.35 kg/m3; mass density (318.15 K, m1 = 0.0763): 998.046 ± 0.35 kg/m3; mass density (318.15 K, m1 = 0.0864): 999.064 ± 0.34 kg/m3; mass density (318.15 K, m1 = 0.0935): 999.785 ± 0.34 kg/m3; mass density (318.15 K, m1 = 0.1221): 1002.63 ± 0.35 kg/m3; mass density (318.15 K, m1 = 0.2589): 1016.03 ± 0.4 kg/m3; mass density (318.15 K, m1 = 0.3292): 1022.73 ± 0.43 kg/m3; mass density (318.15 K, m1 = 0.4019): 1029.56 ± 0.46 kg/m3; mass density (318.15 K, m1 = 0.4364): 1032.77 ± 0.47 kg/m3; mass density (318.15 K, m1 = 0.5252): 1040.92 ± 0.5 kg/m3; mass density (318.15 K, m1 = 0.6535): 1052.37 ± 0.55 kg/m3; mass density (318.15 K, m1 = 0.7422): 1060.13 ± 0.58 kg/m3; mass density (318.15 K, m1 = 0.9099): 1074.41 ± 0.64 kg/m3; mass density (318.15 K, m1 = 1.168): 1095.45 ± 0.72 kg/m3; mass density (318.15 K, m1 = 1.43): 1115.74 ± 0.81 kg/m3; mass density (318.15 K, m1 = 1.748): 1138.95 ± 0.9 kg/m3
